Test results from patent US20240367095A1, “TERTIARY ALKANOLAMINE FOR GAS TREATING” (Dow Global Technologies LLC, priority 2021, published 2024).

Experiment: physchem

`CCCCN(CCO)CC(O)CO` (stereo not shown) [HEBAPD] and `CCCN(CCO)CC(O)CO` (stereo not shown) [HEPAPD] are the same in pKa: 8.54 for the first, 8.54 for the second.

`CCC(CO)N(C)CC(O)CO` (stereo not shown) [HMPMAPD, 3-[[1-(hydroxymethyl)propyl]methylamino]-1,2-propanediol] and `CC(CO)N(C)CC(O)CO` (stereo not shown) [HMEMAPD, 3-[(2-hydroxy-1-methylethyl)methylamino]-1,2-propanediol] are the same in pKa: 8.53 for the first, 8.53 for the second.

`CN(CCO)CC(O)CO` (stereo not shown) [HEMAPD] and `CCN(CCO)CC(O)CO` (stereo not shown) [HEEAPD] are within 0.2 log units of each other in pKa: 8.45 for the first, 8.54 for the second.

Work on `CCN(CC(O)CO)C(C)CO` (stereo not shown) [EHMEAPD, 3-[ethyl(2-hydroxy-1-methylethyl)amino]-1,2-propanediol] yielded a pKa of 8.62.
